# Source: publication PMC4370687, “Functional Characterization of the 1,5-Benzodiazepine Clobazam and Its Major Active Metabolite N-Desmethylclobazam at Human GABAA Receptors Expressed in Xenopus laevis Oocytes” (PLoS ONE, 2015)
# Experiments:
# Experiment in all cases: GABA concentration-response, TEVC electrophysiology in Xenopus oocytes
# Format in all cases: cell-based
# Details in all cases: GABA as agonist
# [1] = biological target: T1, human α2β2γ2S GABAAR (Homo sapiens, UniProt P18507+P47869+P47870)
# T1 construct: expressed in transfected cells; host or cells: Xenopus laevis oocytes (cRNA injection, α:β2:γ2S 1:1:1; 1:1:5 in the zolpidem comparison)
# T1 sequence (P47869 29-451): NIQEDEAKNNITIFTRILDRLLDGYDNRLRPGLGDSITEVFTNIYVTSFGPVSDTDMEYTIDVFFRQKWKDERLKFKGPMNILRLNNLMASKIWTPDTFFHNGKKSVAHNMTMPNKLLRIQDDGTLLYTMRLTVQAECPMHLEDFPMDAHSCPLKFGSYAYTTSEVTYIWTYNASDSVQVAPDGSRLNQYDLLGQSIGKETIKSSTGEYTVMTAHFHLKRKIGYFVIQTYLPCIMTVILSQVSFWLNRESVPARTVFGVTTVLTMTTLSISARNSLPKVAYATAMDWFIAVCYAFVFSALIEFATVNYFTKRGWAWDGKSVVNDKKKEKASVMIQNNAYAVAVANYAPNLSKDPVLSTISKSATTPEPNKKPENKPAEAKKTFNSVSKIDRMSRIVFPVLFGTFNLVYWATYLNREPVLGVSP
# T1 sequence (P47870 26-474 isoform P47870-1 limits assumed): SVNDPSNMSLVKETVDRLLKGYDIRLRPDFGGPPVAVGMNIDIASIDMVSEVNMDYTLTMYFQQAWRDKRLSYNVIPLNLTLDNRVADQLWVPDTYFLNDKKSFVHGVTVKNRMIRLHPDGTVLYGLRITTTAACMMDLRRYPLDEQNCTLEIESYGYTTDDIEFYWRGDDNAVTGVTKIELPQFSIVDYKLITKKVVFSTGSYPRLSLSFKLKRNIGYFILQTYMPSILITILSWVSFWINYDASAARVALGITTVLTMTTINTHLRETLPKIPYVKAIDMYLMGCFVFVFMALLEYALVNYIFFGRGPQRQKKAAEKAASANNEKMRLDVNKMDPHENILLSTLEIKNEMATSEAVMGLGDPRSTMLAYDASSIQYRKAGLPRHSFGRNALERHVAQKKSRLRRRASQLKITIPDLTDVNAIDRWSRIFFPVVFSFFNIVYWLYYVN
# T1 sequence (P18507 40-467 isoform P18507-1 limits assumed): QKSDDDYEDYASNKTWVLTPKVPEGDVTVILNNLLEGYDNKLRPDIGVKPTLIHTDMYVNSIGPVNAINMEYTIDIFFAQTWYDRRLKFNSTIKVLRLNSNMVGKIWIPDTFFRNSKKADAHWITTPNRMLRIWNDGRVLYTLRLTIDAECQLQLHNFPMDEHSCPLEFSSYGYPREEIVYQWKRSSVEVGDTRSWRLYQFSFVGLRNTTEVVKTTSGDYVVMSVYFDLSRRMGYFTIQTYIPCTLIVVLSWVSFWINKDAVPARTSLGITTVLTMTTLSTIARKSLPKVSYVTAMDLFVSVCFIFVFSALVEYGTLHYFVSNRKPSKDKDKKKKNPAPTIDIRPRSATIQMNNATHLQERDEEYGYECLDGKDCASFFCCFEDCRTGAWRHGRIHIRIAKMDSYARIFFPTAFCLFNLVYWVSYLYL
# Experimental: (§1) The cDNAs encoding the human GABAAR subunits were linearized with DraIII (α1, α2, α3, α5 and α6), SmaI (β2 and γ2S) or StuI (δ) and used as templates for in vitro cRNA synthesis using the T7 mMESSAGE mMACHINE High Yield Capped RNA Transcription Kit (Life Technologies Corporation, Carlsbad, CA, USA). Except where otherwise indicated, Xenopus oocytes were injected with 36.8 nL cRNA solution encoding for α1β2γ2S, α2β2γ2S, α3β2γ2S and α5β2γ2S GABAARs in a 1:1:1 α:β2:γ2S ratio (2.7 ng/μL of each subunit), with 46 nL cRNA solution encoding for the α6β2δ GABAAR in a 10:1:10 α6:β2:δ ratio (1:0.1:1 μg/μL), with 18 nL cRNA solution encoding for the α1β2 GABAAR in a 1:1 α1:β2 ratio (0.6:0.6 μg/μL), or with 46 nL cRNA encoding for α6β2 (α6:β2 ratio: 1:0.1 μg/μL). Following injection, the oocytes were incubated at 18°C in modified Barth’s solution [88 mM NaCl, 1 mM KCl, 15 mM HEPES (pH 7.5), 2.4 mM NaHCO3, 0.41 mM CaCl2, 0.82 mM MgSO4, 0.3 mM Ca(NO3)2, 100 U/mL penicillin and 100 μg/mL streptomycin]. Electrophysiological recordings were performed 3 to 6 days after injection.
# (§2) Electrophysiological recordings were performed using the TEVC technique on Xenopus oocytes expressing various GABAAR combinations using a protocol adapted from previous studies. […] Cells were impaled with agar-plugged 0.5–1 MΩ electrodes containing 3 M KCl and voltage clamped at −70 mV by a Gene Clamp 500B amplifier (Axon Instruments, Union City, CA, USA) and recorded with pClamp 10 (Windows version, Molecular Devices, LLC, Sunnyvale, CA, USA). The oocytes were continuously perfused with Ringer buffer, and the test compounds were applied in the perfusate. Experiments were performed at room temperature and each data point represents the mean ± S.E.M. value of recordings performed on at least two oocytes from at least two different batches of oocytes. The recorded baseline-to-peak current amplitudes were analyzed using Clampfit 10.1 (Axon Instruments, Union City, CA, USA). […]
# [2] = biological target: T2, human α3β2γ2S GABAAR (Homo sapiens, UniProt P18507+P34903+P47870)
# T2 construct: expressed in transfected cells; host or cells: Xenopus laevis oocytes (cRNA injection, 1:1:1)
# T2 sequence (P34903 29-492): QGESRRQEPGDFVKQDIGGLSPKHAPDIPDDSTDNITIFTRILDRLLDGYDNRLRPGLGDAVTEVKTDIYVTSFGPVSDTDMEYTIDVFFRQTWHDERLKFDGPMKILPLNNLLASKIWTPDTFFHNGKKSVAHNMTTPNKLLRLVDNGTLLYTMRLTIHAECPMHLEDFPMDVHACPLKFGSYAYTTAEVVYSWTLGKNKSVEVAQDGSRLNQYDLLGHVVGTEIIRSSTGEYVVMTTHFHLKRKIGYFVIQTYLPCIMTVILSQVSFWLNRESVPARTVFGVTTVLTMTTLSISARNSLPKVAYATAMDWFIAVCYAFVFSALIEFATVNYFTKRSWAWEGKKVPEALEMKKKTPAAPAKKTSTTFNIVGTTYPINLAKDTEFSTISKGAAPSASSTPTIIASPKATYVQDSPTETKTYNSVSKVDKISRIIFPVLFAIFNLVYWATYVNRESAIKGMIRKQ
# T2 sequence (P47870 26-474 isoform P47870-1 limits assumed): as the sequence (P47870 26-474 isoform P47870-1 limits assumed) above
# T2 sequence (P18507 40-467 isoform P18507-1 limits assumed): as the sequence (P18507 40-467 isoform P18507-1 limits assumed) above
# Experimental: as §1, §2
# [3] = biological target: T3, human α5β2γ2S GABAAR (Homo sapiens, UniProt P18507+P31644+P47870)
# T3 construct: expressed in transfected cells; host or cells: Xenopus laevis oocytes (cRNA injection, 1:1:1)
# T3 sequence (P31644 32-462): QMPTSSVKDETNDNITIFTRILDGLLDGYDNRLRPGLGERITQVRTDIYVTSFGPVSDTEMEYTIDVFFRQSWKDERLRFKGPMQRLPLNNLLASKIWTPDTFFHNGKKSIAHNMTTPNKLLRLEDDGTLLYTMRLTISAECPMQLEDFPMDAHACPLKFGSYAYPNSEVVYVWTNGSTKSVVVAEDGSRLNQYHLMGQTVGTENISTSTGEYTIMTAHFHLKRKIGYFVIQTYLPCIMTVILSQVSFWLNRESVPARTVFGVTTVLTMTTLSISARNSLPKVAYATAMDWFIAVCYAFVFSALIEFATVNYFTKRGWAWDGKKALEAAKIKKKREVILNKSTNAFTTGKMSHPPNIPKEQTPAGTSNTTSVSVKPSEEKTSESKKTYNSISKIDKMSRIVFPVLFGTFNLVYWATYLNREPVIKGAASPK
# T3 sequence (P47870 26-474 isoform P47870-1 limits assumed): as the sequence (P47870 26-474 isoform P47870-1 limits assumed) above
# T3 sequence (P18507 40-467 isoform P18507-1 limits assumed): as the sequence (P18507 40-467 isoform P18507-1 limits assumed) above
# Experimental: as §1, §2
# [4] = biological target: T4, human α6β2 GABAAR (Homo sapiens, UniProt P47870+Q16445)
# T4 construct: expressed in transfected cells; host or cells: Xenopus laevis oocytes (cRNA injection)
# T4 sequence (Q16445 20-453): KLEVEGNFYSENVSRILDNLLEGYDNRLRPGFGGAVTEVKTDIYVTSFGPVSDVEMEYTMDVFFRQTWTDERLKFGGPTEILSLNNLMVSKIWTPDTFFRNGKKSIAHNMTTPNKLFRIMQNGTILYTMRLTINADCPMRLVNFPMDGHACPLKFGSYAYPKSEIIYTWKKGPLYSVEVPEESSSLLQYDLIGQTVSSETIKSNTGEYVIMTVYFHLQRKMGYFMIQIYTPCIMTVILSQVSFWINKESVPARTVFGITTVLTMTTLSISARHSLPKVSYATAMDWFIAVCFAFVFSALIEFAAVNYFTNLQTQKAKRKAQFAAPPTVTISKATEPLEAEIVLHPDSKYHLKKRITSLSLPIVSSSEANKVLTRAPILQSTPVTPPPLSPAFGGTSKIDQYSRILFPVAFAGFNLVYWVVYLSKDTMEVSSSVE
# T4 sequence (P47870 26-474 isoform P47870-1 limits assumed): as the sequence (P47870 26-474 isoform P47870-1 limits assumed) above
# Experimental: as §1, with “Following injection, the oocytes were incubated at 18°C in modified Barth’s solution [88 mM NaCl, 1 mM KCl, 15 mM HEPES (pH 7.5), 2.4 mM NaHCO3, 0.41 mM CaCl2, 0.82 mM MgSO4, 0.3 mM Ca(NO3)2, 100 U/mL penicillin and 100 μg/mL streptomycin]. Electrophysiological recordings were performed 3 to 6 days after injection.” left out
# as §2, with “The oocytes were continuously perfused with Ringer buffer, and the test compounds were applied in the perfusate. Experiments were performed at room temperature and each data point represents the mean ± S.E.M. value of recordings performed on at least two oocytes from at least two different batches of oocytes.” left out
# [5] = biological target: human α1β2γ2S GABAAR (Homo sapiens, UniProt P14867+P18507+P47870); set-up: expressed in transfected cells; host or cells: Xenopus laevis oocytes (cRNA injection, α:β2:γ2S 1:1:1)
# Sequence of human α1β2γ2S GABAAR (P14867 28-456): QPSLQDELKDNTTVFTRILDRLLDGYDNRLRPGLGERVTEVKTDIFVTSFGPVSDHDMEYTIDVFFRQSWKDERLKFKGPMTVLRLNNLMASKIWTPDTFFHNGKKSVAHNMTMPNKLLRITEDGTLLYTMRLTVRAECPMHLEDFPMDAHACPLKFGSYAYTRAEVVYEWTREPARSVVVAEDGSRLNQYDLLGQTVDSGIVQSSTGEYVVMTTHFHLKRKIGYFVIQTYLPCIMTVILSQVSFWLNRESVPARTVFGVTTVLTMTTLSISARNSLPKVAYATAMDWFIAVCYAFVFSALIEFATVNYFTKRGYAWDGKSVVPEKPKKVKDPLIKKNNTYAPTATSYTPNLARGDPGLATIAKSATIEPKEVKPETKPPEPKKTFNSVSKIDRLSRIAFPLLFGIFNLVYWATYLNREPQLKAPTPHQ
# Sequence of human α1β2γ2S GABAAR (P47870 26-474 isoform P47870-1 limits assumed): as the sequence (P47870 26-474 isoform P47870-1 limits assumed) above
# Sequence of human α1β2γ2S GABAAR (P18507 40-467 isoform P18507-1 limits assumed): as the sequence (P18507 40-467 isoform P18507-1 limits assumed) above
# Experimental: as §1, with “Following injection, the oocytes were incubated at 18°C in modified Barth’s solution [88 mM NaCl, 1 mM KCl, 15 mM HEPES (pH 7.5), 2.4 mM NaHCO3, 0.41 mM CaCl2, 0.82 mM MgSO4, 0.3 mM Ca(NO3)2, 100 U/mL penicillin and 100 μg/mL streptomycin]. Electrophysiological recordings were performed 3 to 6 days after injection.” left out
# as §2, with “The oocytes were continuously perfused with Ringer buffer, and the test compounds were applied in the perfusate. Experiments were performed at room temperature and each data point represents the mean ± S.E.M. value of recordings performed on at least two oocytes from at least two different batches of oocytes.” left out
compound,measurement,setting,value
"NCCCC(=O)O [GABA, γ-aminobutyric acid]",Hill slope nH ± S.E.M.,[1],1.44 ± 0.07
same,Hill slope nH ± S.E.M.,[2],1.22 ± 0.05
same,Hill slope nH ± S.E.M.,[3],1.19 ± 0.08
same,Hill slope nH ± S.E.M.,[4],0.89 ± 0.09
same,Hill slope nH ± S.E.M.,[5],1.19 ± 0.05
